# Where “and” joins values, the source holds several entries; their conditions need not be identical. Equal values may be shown once.
# Legend:
# cupin domain of CapF = settings: isothermal titration calorimetry; cited from earlier work
# [1] = test system: S. aureus Newman, G01, and F4; experiment: MIC80 of S. aureus Newman, G01 and F4
# S. aureus (ATCC 29213) = experiment: MIC80 by broth microdilution; type: cell-based, Staphylococcus aureus
# E. coli (ATCC 35218) [2] = experiment: time-killing curve; type: cell-based, Escherichia coli; settings: 16× MIC80, within 6 h
# Cryptococcus neoformans = settings: ref 15 and unpublished data; cited from earlier work
# E. coli (ATCC 35218) [3] = experiment: MIC80 by broth microdilution; type: cell-based, Escherichia coli; settings: for MIC80 E. coli (ATCC35218): ≥80% growth inhibition, 16–24 h, CAMHB
smiles,measurement,setting,value
"C=C(C)c1ccccc(=O)c1O [Compound 349, 3-isopropenyl-tropolone]",Kd,cupin domain of CapF,27 ± 7 µM
same,"growth inhibition, in words",[1]; F4 and G01 strains,did not inhibit
same,MIC80,[1]; S. aureus F4 (Newman with ermB-inactivated cap5F gene),100 µM
same,MIC80,[1]; S. aureus G01 (Newman with ermB-inactivated cap5G gene),100 µM
same,MIC80,[1]; S. aureus Newman,66.7 µM
same,"growth inhibition, in words",[1]; wild-type Newman,slightly inhibited
"O=c1cccccc1S [Compound 363, thiotropolone]","inhibition of S. aureus, in words",S. aureus (ATCC 29213); structure-activity discussion,only slightly decreased
same,reduction of colony count,E. coli (ATCC 35218) [2],~3 log10
same,MIC80 Cryptococcus neoformans,Cryptococcus neoformans,0.25 µM
O=C(Sc1cccccc1=O)c1ccccc1 [Compound 364],MIC80 S. aureus (ATCC29213),"S. aureus (ATCC 29213); ≥80% growth inhibition, 16–24 h, CAMHB",< 20 µM
same,MIC80 E. coli (ATCC35218),E. coli (ATCC 35218) [3],< 30 µM
O=C(Sc1cccccc1=O)c1ccccc1C(F)(F)F [Compound 677],MIC80 E. coli (ATCC35218),E. coli (ATCC 35218) [3],< 20 µM
O=C(Sc1cccccc1=O)c1cccc(C(F)(F)F)c1 [Compound 678],MIC80 E. coli (ATCC35218),E. coli (ATCC 35218) [3],< 20 µM
O=C(Cc1ccccc1)Sc1cccccc1=O [Compound 680],MIC80 E. coli (ATCC35218),E. coli (ATCC 35218) [3],< 30 µM and < 20 µM
O=c1cccccc1Sc1cccccc1=O [Compound 684],MIC80 E. coli (ATCC35218),E. coli (ATCC 35218) [3],< 20 µM
O=c1cccccc1SSc1cccccc1=O [Compound 685],MIC80 E. coli (ATCC35218),E. coli (ATCC 35218) [3],< 20 µM
CC[C@H](C)[C@H](NC(=O)OCC1c2ccccc2-c2ccccc21)C(=O)Sc1cccccc1=O [Compound 686],"activity against E. coli, in words",E. coli (ATCC 35218) [3],inactive

# — publication PMC6275967 (ACS Omega, 2018)
